In assay [1] the target is T1, DRB4=HLA-DR(α1*0101,α4*0101) (Homo sapiens, UniProt P01903+P13762, G164S).
T1 construct: endogenous in cells
The experiment in a line: HLA-DR specific binding assay, DRB4 (DR53).

For assay [2], the target named is T2, DP401=HLA-DP(α1*0101,α1*0401) (Homo sapiens, UniProt P04440+P20036).
T2 sequence (P20036 32-260 limits assumed): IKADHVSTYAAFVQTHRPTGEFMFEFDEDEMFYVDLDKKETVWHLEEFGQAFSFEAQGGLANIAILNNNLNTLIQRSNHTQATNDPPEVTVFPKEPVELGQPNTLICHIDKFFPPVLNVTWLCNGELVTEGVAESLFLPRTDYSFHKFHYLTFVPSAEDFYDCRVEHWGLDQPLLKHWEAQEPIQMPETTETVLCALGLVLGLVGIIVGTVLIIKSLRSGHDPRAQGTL
T2 sequence (P04440 30-258): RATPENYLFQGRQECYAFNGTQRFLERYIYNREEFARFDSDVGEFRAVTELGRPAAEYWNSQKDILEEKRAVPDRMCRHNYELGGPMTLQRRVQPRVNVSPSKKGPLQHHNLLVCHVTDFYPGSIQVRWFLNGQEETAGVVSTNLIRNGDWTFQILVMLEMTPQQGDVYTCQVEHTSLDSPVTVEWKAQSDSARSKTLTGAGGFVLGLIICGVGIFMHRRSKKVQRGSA
Briefly: biochemical. The format is binding.

In assay [3] the target is T3, DP402 DP (α1*0101, α1*0402) (Homo sapiens, UniProt P04440+P20036, A65V/A84D/A85E/L207M).
T3 sequence (P20036 29-260): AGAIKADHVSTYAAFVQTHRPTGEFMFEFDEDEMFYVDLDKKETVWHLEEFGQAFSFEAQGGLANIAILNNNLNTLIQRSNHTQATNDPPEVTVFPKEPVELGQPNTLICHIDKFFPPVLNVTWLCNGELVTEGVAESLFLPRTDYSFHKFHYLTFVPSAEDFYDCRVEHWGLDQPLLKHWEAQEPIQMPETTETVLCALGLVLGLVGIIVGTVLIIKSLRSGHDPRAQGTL
T3 sequence (P04440 30-258 A65V/A84D/A85E): T2 sequence (P04440 30-258) with A36V, A55D, A56E
The experiment in a line: biochemical. The format is binding.

Assay [4] concerns the target T4, DRB3=HLA-DR(α1*0101,α3*0101) (Homo sapiens, UniProt P01903+P79483).
T4 construct: endogenous in cells; host or cells: STEILIN or 0206AD (both typed DRB3*0101)
The experiment in a line: HLA-DR specific binding assay, DRB3 (DR52).

A further assay deals with T5, I-E^d molecule (Mus musculus, UniProt P01904+P01915).
T5 sequence (P01904 26-255): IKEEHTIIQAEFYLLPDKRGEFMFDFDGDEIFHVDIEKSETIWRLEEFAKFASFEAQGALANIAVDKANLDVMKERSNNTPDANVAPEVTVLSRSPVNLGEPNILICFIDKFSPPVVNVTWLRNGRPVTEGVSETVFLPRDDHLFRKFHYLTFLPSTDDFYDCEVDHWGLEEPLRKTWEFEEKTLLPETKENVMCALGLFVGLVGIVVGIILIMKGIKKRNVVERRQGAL
T5 sequence (P01915 32-264): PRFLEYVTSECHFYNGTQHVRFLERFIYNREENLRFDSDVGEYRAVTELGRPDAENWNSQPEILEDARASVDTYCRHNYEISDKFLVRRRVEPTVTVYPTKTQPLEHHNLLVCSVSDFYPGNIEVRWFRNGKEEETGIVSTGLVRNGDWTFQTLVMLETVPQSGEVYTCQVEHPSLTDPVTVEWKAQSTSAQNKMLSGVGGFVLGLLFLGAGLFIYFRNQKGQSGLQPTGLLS
Briefly: Binding to I-E^d molecule. Set-up: species or system mice.

The next assay has as its system T-cells. Briefly: Cytokine analysis (IL-2, IL-4, IFN-γ sandwich ELISA). Format: cell-based, mice. How it is done:
T-cells were stimulated with either immunizing peptides (10 μg/ml), the irrelevant control peptide (10 μg/ml), UV-inactivated HSV-1 (MOI=3), or with ConA (0.5 μg/ml) as a positive control. Culture media were harvested 48 h (for IL-2) or 96 h (for IL-4 and IFN-γ) later and analyzed by specific sandwich ELISA following the manufacturer's instructions (PharMingen, San Diego, Calif.).
A general note: In an ELISA, binding on a coated surface is turned into a signal by an enzyme label.

The mark [5] stands for this setting: IC50, DRD3, Class II MHC allele DRD3 (so in the source).
The mark [6] stands for this setting: T cells treated with Abs to CD4.
The mark [7] stands for this setting: T cells treated with Abs to CD8.
Where [8] appears, read: splenocyte derived T cells, no Abs, average of triplicates (+/- SD).

This is an account of results in patent publication US20080299140A1, “Immunogenic Composition and Peptide Sequences for Prevention and Treatment of an Hsv Condition” (priority 2002, published 2008).

Changes are numbered by the printed parent chain.

T4 sequence (P79483 30-266, other chains not shown): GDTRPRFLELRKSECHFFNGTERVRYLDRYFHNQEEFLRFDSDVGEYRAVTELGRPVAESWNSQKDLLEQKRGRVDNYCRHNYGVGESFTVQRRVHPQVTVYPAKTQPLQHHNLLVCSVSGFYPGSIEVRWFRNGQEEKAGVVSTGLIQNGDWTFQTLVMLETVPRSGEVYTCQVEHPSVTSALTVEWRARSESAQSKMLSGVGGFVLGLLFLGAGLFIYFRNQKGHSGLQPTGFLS

In the case of `CC[C@H](C)[C@H](NC(=O)[C@@H]1CCCN1C(=O)[C@H](CS)NC(=O)[C@H](C)NC(=O)CNC(=O)[C@H](CC(C)C)NC(=O)[C@H](CO)NC(=O)[C@H](CCCCN)NC(=O)[C@@H](N)CC(N)=O)C(=O)N[C@@H](CCCNC(=N)N)C(=O)N[C@H](C(=O)N[C@@H](CCC(N)=O)C(=O)N1CCC[C@H]1C(=O)N[C@@H](CCCNC(=N)N)C(=O)N[C@@H](Cc1c[nH]c2ccccc12)C(=O)N[C@@H](CC(N)=O)C(=O)N[C@@H](Cc1ccc(O)cc1)C(=O)N[C@@H](Cc1ccc(O)cc1)C(=O)N[C@@H](CC(=O)O)C(=O)N[C@@H](CO)C(=O)N[C@@H](Cc1ccccc1)C(=O)N[C@@H](CO)C(=O)N[C@@H](C)C(=O)N[C@H](C(=O)N[C@@H](CO)C(=O)N[C@@H](CCC(=O)O)C(=O)N[C@@H](CC(=O)O)C(=O)N[C@@H](CC(N)=O)C(=O)N[C@@H](CC(C)C)C(=O)NCC(=O)N[C@@H](Cc1ccccc1)C(=O)N[C@@H](CC(C)C)C(=O)O)C(C)C)[C@@H](C)O` [HSV 33], the IC50 (usually the midpoint of a concentration-inhibition curve) was 0.319 µM in assay [1]; 0.083 µM in assay [2] (Class II MHC allele DP401); 0.083 µM in assay [2] (Table V, […]); 0.065 µM in assay [3] (Class II MHC allele DP402); 0.065 µM in assay [3] (Table V, […]); 0.226 µM in assay [4] (setting [5]). This compound also had an IC50 in assay [4] (IC50 DRB3, Table V, […]) of 0.226 µM.
With `CC[C@H](C)[C@H](NC(=O)[C@H](CO)NC(=O)[C@@H]1CCCN1C(=O)[C@@H](NC(=O)[C@H](Cc1c[nH]cn1)NC(=O)[C@H](Cc1c[nH]c2ccccc12)NC(=O)[C@H](CC(N)=O)NC(=O)[C@@H]1CCCN1C(=O)[C@@H]1CCCN1C(=O)[C@@H](NC(=O)[C@H](CCC(N)=O)NC(=O)[C@@H]1CCCN1C(=O)[C@H](C)N)[C@@H](C)CC)[C@@H](C)CC)C(=O)N[C@@H](CCC(N)=O)C(=O)N[C@@H](CC(=O)O)C(=O)N[C@@H](C)C(=O)N[C@@H](C)C(=O)N[C@H](C(=O)N1CCC[C@H]1C(=O)N[C@@H](Cc1ccc(O)cc1)C(=O)N[C@@H](Cc1c[nH]cn1)C(=O)N1CCC[C@H]1C(=O)N1CCC[C@H]1C(=O)N[C@@H](C)C(=O)N[C@H](C(=O)N1CCC[C@H]1C(=O)N[C@@H](CC(N)=O)C(=O)N[C@@H](CC(N)=O)C(=O)N[C@@H](CCSC)C(=O)NCC(=O)N[C@@H](CC(C)C)C(=O)O)[C@@H](C)O)[C@@H](C)O` [HSV 35], the IC50 in assay [1] was 3.26 µM; in assay [2] (Class II MHC allele DP401), > 100 µM; in assay [2] (Table V, […]) it was > 100 µM; in assay [3] (Class II MHC allele DP402), > 100 µM; in assay [3] (Table V, […]), > 100 µM; in assay [4] (setting [5]), 5 µM. For the same compound, the IC50 in assay [4] (IC50 DRB3, Table V, […]) was determined as 5 µM. The “binding to I-E^d molecule” value on I-E^d molecule is “strong binders”.
For `CC[C@H](C)[C@H](NC(=O)[C@H](CCC(N)=O)NC(=O)[C@@H]1CCCN1C(=O)[C@H](C)NC(=O)[C@H](CCC(=O)O)NC(=O)[C@H](CO)NC(=O)[C@@H]1CCCN1C(=O)[C@H](C)NC(=O)[C@H](CC(N)=O)NC(=O)[C@H](CC(C)C)NC(=O)[C@H](CC(C)C)NC(=O)[C@@H](NC(=O)[C@H](CO)NC(=O)[C@H](CCCNC(=N)N)NC(=O)[C@H](CS)NC(=O)[C@H](C)NC(=O)[C@H](CCCNC(=N)N)NC(=O)[C@H](CCC(=O)O)NC(=O)[C@H](CC(C)C)NC(=O)[C@@H](NC(=O)[C@H](C)NC(=O)[C@H](Cc1ccc(O)cc1)NC(=O)[C@H](Cc1ccc(O)cc1)NC(=O)[C@@H](NC(=O)[C@@H](NC(=O)[C@@H](NC(=O)[C@@H]1CCCN1C(=O)[C@H](CC(C)C)NC(=O)[C@H](CO)NC(=O)[C@@H]1CCCN1C(=O)[C@@H]1CCCN1C(=O)[C@@H](N)CCC(N)=O)[C@@H](C)CC)[C@@H](C)O)C(C)C)C(C)C)C(C)C)C(=O)N[C@H](C(=O)N[C@@H](CCCNC(=N)N)C(=O)O)C(C)C` [HSV 36], the “IFNγ, Anti-CD4” value in the assay with T-cells (setting [6]) is given as 6 (+/−2) ng/ml. Besides, in the assay with T-cells (setting [6]), the “IL-2, Anti-CD4” value is recorded as 22 (+/−2) pg/ml. For the same compound, the “IFNγ, Anti-CD8” value with T-cells (setting [7]) was 66 (+/−2) ng/ml. For the same compound, the “IL-2, Anti-CD8” value in the assay with T-cells (setting [7]) is given as 88 (+/−5) pg/ml. In the assay with T-cells (setting [8]), the “IFNγ, None” value is listed as 60 (+/−4) ng/ml. For the same compound, the “IL-2, None” value in the assay with T-cells (setting [8]) is recorded as 92 (+/−5) pg/ml. In addition, the IC50 in assay [2] (Class II MHC allele DP401) came to 0.615 µM; in assay [2] (Table V, […]), 0.615 µM; in assay [3] (Class II MHC allele DP402) it was 0.098 µM; in assay [3] (Table V, […]), 0.098 µM; in assay [4] (setting [5]) it was 5 µM; in assay [4] (IC50 DRB3, Table V, […]) it was 5 µM.
In the case of `CC[C@H](C)[C@H](NC(=O)[C@H](CO)NC(=O)[C@H](CC(=O)O)NC(=O)[C@@H](NC(=O)[C@@H](NC(=O)[C@@H](NC(=O)CNC(=O)[C@H](CCC(N)=O)NC(=O)[C@H](CCC(N)=O)NC(=O)[C@H](Cc1ccc(O)cc1)NC(=O)[C@H](C)NC(=O)[C@H](CCC(N)=O)NC(=O)[C@@H]1CCCN1C(=O)[C@H](CO)NC(=O)[C@H](CC(C)C)NC(=O)[C@H](CS)NC(=O)[C@H](C)NC(=O)[C@@H](N)CO)C(C)C)[C@@H](C)O)C(C)C)C(=O)NCC(=O)N[C@@H](CCSC)C(=O)N[C@@H](CC(C)C)C(=O)N1CCC[C@H]1C(=O)N[C@@H](CCCNC(=N)N)C(=O)N[C@@H](Cc1ccccc1)C(=O)N[C@H](C(=O)N1CCC[C@H]1C(=O)N[C@@H](CCC(=O)O)C(=O)N[C@@H](CC(N)=O)C(=O)N[C@@H](CCC(N)=O)C(=O)N[C@@H](CCCNC(=N)N)C(=O)N[C@H](C(=O)N[C@H](C(=O)N[C@@H](C)C(=O)N[C@H](C(=O)N[C@@H](Cc1ccc(O)cc1)C(=O)O)C(C)C)C(C)C)[C@@H](C)O)[C@@H](C)CC` [HSV 37], the IC50 in assay [1] was found to be 3.74 µM; in assay [3] (Class II MHC allele DP402) it was 0.167 µM; in assay [3] (Table V, […]), 0.167 µM; in assay [4] (setting [5]), 0.041 µM; in assay [4] (IC50 DRB3, Table V, […]) it was 0.041 µM. Further, at I-E^d molecule, the “binding to I-E^d molecule” value was “strong binders”.
